From patent US8637523B2, “Compounds for the reduction of beta-amyloid production” (Bristol-Myers Squibb Company, priority 2010, dated 2014)

Each compound was assayed on Aβ42 (assay: Cellular assay for inhibition of Aβ1-42 production (H4 APP751 SWE clone 8.20)). Conditions: 19 h, H4 APP751 SWE clone 8.20 cells, 19 h incubation; read-out: Activity Rating (Aβ42 cellular IC50), class symbol.
Assay type: cell-based
Outline: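 H4 cells stably expressing Swedish-mutant APP751 incubated with compound 19 h at 37 °C, 5% CO2. Secreted Aβ42 detected by HTRF with Aβ42 neoepitope antibody 565 (0.8 ng/well) and N-terminal 26D6 (75 ng/well), overnight at 4 °C. IC50 obtained by curve fitting.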
`CN1CCCOc2cc(ccc2C#N)Nc2nc3c(c1n2)CCC3c1ccccc1` (stereo not drawn) [Example 31A, 7-cyano-β-methyl-17-phenyl-11,12,13,15,16,17-hexahydro-10H-14,2-(azeno)-8,4-(metheno)cyclopenta[g][1,5,9,11]oxatriazacyclohexadecine] gave an IC50 of 0.01 to 0.1 µM.
With `N#Cc1ccc2cc1OCCCNc1nc(nc3c1CCC3c1ccc(F)cc1F)N2` (stereo not drawn) [Example 33A, 7-cyano-17-(2,4-difluorophenyl)-11,12,13,15,16,17-hexahydro-10H-14,2-(azeno)-8,4-(metheno)cyclopenta[g][1,5,9,14]oxatriazacyclohexadecine] the IC50 was 0.01 to 0.1 µM.
Compound `CN1CCCOc2cc(ccc2C#N)Nc2nc3c(c1n2)CCC3c1ccc(F)cc1F` (stereo not drawn) [Example 35A, 7-cyano-17-(2,4-difluorophenyl)-13-methyl-11,12,13,15,16,17-hexahydro-10H-14,2-(azeno)-8,4-(metheno)cyclopenta[g][1,5,9,11]oxatriazacyclohexadecine] has an IC50 of 0.01 to 0.1 µM.
`N#Cc1ccc2cc1OCCCCCc1nc(nc3c1CCC3c1ccccc1)N2` (stereo not drawn) [Example 38B, 7-cyano-18-phenyl-10,11,12,13,14,16,17,18-octahydro-15,2-(azeno)-8,4-(metheno)cyclopenta[h][1,10,12]oxadiazacycloheptadecine] was tested, and the IC50 was 0.1 to 1 µM.
Compound `Cc1ncnn1-c1ccc2cc1OC/C=C\CN(C)c1nc(nc3c1CCC3c1ccccc1)N2` (stereo not drawn) [Example 41B, (11Z)-14-methyl-7-(5-methyl-1H-1,2,4-triazol-1-yl)-18-phenyl-10,13,14,16,17,18-hexahydro-15,2-(azeno)-8,4-(metheno)cyclopenta[h][1,6,10,12]oxatriazacycloheptadecine] has an IC50 of 0.01 to 0.1 µM.
Work on `Cc1ncn(-c2ccc3cc2OC/C=C\CN(C)c2nc(nc4c2CCC4c2ccccc2)N3)n1` (stereo not drawn) [Example 44A, (11Z)-14-methyl-7-(3-methyl-1H-1,2,4-triazol-1-yl)-18-phenyl-10,13,14,16,17,18-hexahydro-15,2-(azeno)-8,4-(metheno)cyclopenta[h][1,6,10,12]oxatriazacycloheptadecine] yielded an IC50 of under 0.01 µM.

Same assay, conditions: 19 h, H4 APP751 SWE clone 8.20 cells, 19 h incubation; unit inferred; read-out: Activity Rating (Aβ42 cellular IC50), numeric value
Work on `CN1CCCOc2cc(ccc2C#N)Nc2nc3c(c1n2)CCC3c1ccccc1` (stereo not drawn) [Example 31B, 7-cyano-β-methyl-17-phenyl-11,12,13,15,16,17-hexahydro-10H-14,2-(azeno)-8,4-(metheno)cyclopenta[g][1,5,9,11]oxatriazacyclohexadecine] yielded an IC50 of 0.031 µM.
Work on `N#Cc1ccc2cc1OCCCNc1nc(nc3c1CCC3c1ccc(F)cc1F)N2` (stereo not drawn) [Example 33B, 7-cyano-17-(2,4-difluorophenyl)-11,12,13,15,16,17-hexahydro-10H-14,2-(azeno)-8,4-(metheno)cyclopenta[g][1,5,9,14]oxatriazacyclohexadecine] yielded an IC50 of 0.037 µM.
`CN1CCCOc2cc(ccc2C#N)Nc2nc3c(c1n2)CCC3c1ccc(F)cc1F` (stereo not drawn) [Example 35B, 7-cyano-17-(2,4-difluorophenyl)-13-methyl-11,12,13,15,16,17-hexahydro-10H-14,2-(azeno)-8,4-(metheno)cyclopenta[g][1,5,9,11]oxatriazacyclohexadecine] gave an IC50 of 0.14 µM.
`Cc1ncn(-c2ccc3cc2OC/C=C\CN(C)c2nc(nc4c2CCC4c2ccccc2)N3)n1` (stereo not drawn) [Example 44B, (11Z)-14-methyl-7-(3-methyl-1H-1,2,4-triazol-1-yl)-18-phenyl-10,13,14,16,17,18-hexahydro-15,2-(azeno)-8,4-(metheno)cyclopenta[h][1,6,10,12]oxatriazacycloheptadecine] gave an IC50 of 0.03 µM.
`Cc1ncnn1-c1ccc2cc1OCCCCNc1nc(nc3c1CCC3c1ccccc1)N2` (stereo not drawn) [Example 47A, 7-(5-methyl-1H-1,2,4-triazol-1-yl)-18-phenyl-10,11,12,13,14,16,17,18-octahydro-15,2-(azeno)-8,4-(metheno)cyclopenta[h][1,6,10,12]oxatriazacycloheptadecine] was tested, and the IC50 was 0.0056 µM.

Same assay, conditions: H4 APP751 SWE clone 8.20 cells, 19 h incubation; read-out: Activity Rating (Aβ42 cellular IC50), class symbol
`CN1CC=CCOc2cc(ccc2C#N)Nc2nc3c(c1n2)CCC3c1ccccc1` (stereo not drawn) [Example 30B, (11E)-7-cyano-14-methyl-18-phenyl-10,13,14,16,17,18-hexahydro-15,2-(azeno)-8,4-(metheno)cyclopenta[h][1,6,10,12]oxatriazacycloheptadecine] showed an IC50 of 0.01 to 0.1 µM.
Work on `N#Cc1ccc2cc1OC/C=C/CCc1nc(nc3c1CCC3c1ccccc1)N2` (stereo not drawn) [Example 37B, (11E)-7-cyano-18-phenyl-10,13,14,16,17,18-hexahydro-15,2-(azeno)-8,4-(metheno)cyclopenta[h][1,10,12]oxadiazacycloheptadecine] yielded an IC50 of 0.01 to 0.1 µM.
`Cc1ncn(-c2ccc3cc2OCC=CCNc2nc(nc4c2CCC4c2ccccc2)N3)n1` (stereo not drawn) [Example 39B, (11Z)-7-(3-methyl-1H-1,2,4-triazol-1-yl)-18-phenyl-10,13,14,16,17,18-hexahydro-15,2-(azeno)-8,4-(metheno)cyclopenta[h][1,6,10,12]oxatriazacycloheptadecine] was tested, and the IC50 was 0.01 to 0.1 µM.
`Cc1ncnn1-c1ccc2cc1OCC=CCNc1nc(nc3c1CCC3c1ccccc1)N2` (stereo not drawn) [Example 42B, (11Z)-7-(5-methyl-1H-1,2,4-triazol-1-yl)-18-phenyl-10,13,14,16,17,18-hexahydro-15,2-(azeno)-8,4-(metheno)cyclopenta[h][1,6,10,12]oxatriazacycloheptadecine] was tested, and the IC50 was 0.01 to 0.1 µM.
`Cc1ncnn1-c1ccc2cc1OCC=CCNc1nc(nc3c1CCC3c1ccccc1)N2` (stereo not drawn) [Example 43A, (11E)-7-(5-methyl-1H-1,2,4-triazol-1-yl)-18-phenyl-10,13,14,16,17,18-hexahydro-15,2-(azeno)-8,4-(metheno)cyclopenta[h][1,6,10,12]oxatriazacycloheptadecine] was tested, and the IC50 was under 0.01 µM.
With `Cc1ncn(-c2ccc3cc2OC/C=C\CNc2nc(nc4c2CCC4c2ccc(F)cc2)N3)n1` (stereo not drawn) [Example 45B, (11Z)-18-(4-fluorophenyl)-7-(3-methyl-1H-1,2,4-triazol-1-yl)-10,13,14,16,17,18-hexahydro-15,2-(azeno)-8,4-(metheno)cyclopenta[h][1,6,10,12]oxatriazacycloheptadecine] the IC50 was 0.01 to 0.1 µM.
`Cc1ncn(-c2ccc3cc2OCC=CCNc2nc(nc4c2CCC4c2ccc(F)cc2)N3)n1` (stereo not drawn) [Example 46B, (11E)-18-(4-fluorophenyl)-7-(3-methyl-1H-1,2,4-triazol-1-yl)-10,13,14,16,17,18-hexahydro-15,2-(azeno)-8,4-(metheno)cyclopenta[h][1,6,10,12]oxatriazacycloheptadecine] gave an IC50 of 0.1 to 1 µM.

Same assay, conditions: H4 APP751 SWE clone 8.20 cells, 19 h incubation; unit inferred; read-out: Activity Rating (Aβ42 cellular IC50), numeric value
`Cc1ncn(-c2ccc3cc2OCC=CCNc2nc(nc4c2CCC4c2ccccc2)N3)n1` (stereo not drawn) [Example 39A, (11Z)-7-(3-methyl-1H-1,2,4-triazol-1-yl)-18-phenyl-10,13,14,16,17,18-hexahydro-15,2-(azeno)-8,4-(metheno)cyclopenta[h][1,6,10,12]oxatriazacycloheptadecine] showed an IC50 of 0.004 µM.
Work on `Cc1ncnn1-c1ccc2cc1OCC=CCNc1nc(nc3c1CCC3c1ccccc1)N2` (stereo not drawn) [Example 42A, (11Z)-7-(5-methyl-1H-1,2,4-triazol-1-yl)-18-phenyl-10,13,14,16,17,18-hexahydro-15,2-(azeno)-8,4-(metheno)cyclopenta[h][1,6,10,12]oxatriazacycloheptadecine] yielded an IC50 of 0.0066 µM.
`Cc1ncnn1-c1ccc2cc1OCC=CCNc1nc(nc3c1CCC3c1ccccc1)N2` (stereo not drawn) [Example 43B, (11E)-7-(5-methyl-1H-1,2,4-triazol-1-yl)-18-phenyl-10,13,14,16,17,18-hexahydro-15,2-(azeno)-8,4-(metheno)cyclopenta[h][1,6,10,12]oxatriazacycloheptadecine] showed an IC50 of 0.053 µM.
